ChEMBL document CHEMBL1201862, “PubChem BioAssay data set” (2004)
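Tested at 5 concentrations; 48 h exposure; 96-well plates; endpoints linearly interpolated, else capped at highest concentration. Here, GI50 denotes the concentration required for 50% inhibition of growth.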 Active and inactive are the calls of the source. Cut-off read from the data, not from the text of the source: active = GI50 up to about 1.1 µM and inactive = higher.

Columns and labels:
Experiment in all cases: NCI-60 cell line screen, 48 h
[1] = test system: IGROV-1
[2] = test system: HOP-92
[3] = test system: NCI-H226
[4] = test system: M14
[5] = test system: SW-620
[6] = test system: NCI-H522
[7] = test system: CCRF-CEM
[8] = test system: A549
[9] = test system: T47D
[10] = test system: MDA-N
[11] = test system: K562
[12] = test system: 786-0
[13] = test system: UACC-257
[14] = test system: SNB-75
[15] = test system: SNB-19
[16] = test system: HT-29
[17] = test system: UACC-62
[18] = test system: MDA-MB-435
[19] = test system: NCI-H23
[20] = test system: A498

Measured: GI50

CCC(/C=C/c1ccccc1)=N\Nc1ccc(Cl)c(Cl)c1
inactive: [1] 5.14 µM | [2] 13.6 µM | [3] 21.5 µM | [4] 56.4 µM | [5] 33 µM | [6] 18.5 µM | [7] 62.4 µM | [8] 39.7 µM | [9] 49.9 µM | [10] 34.3 µM | [11] 32.9 µM | [12] 34.4 µM | [13] 31.6 µM | [14] 41.3 µM | [15] 52.1 µM | [16] 35.8 µM | [17] 13.9 µM | [18] 33.3 µM | [19] 30.9 µM

CC(/C=C/C(O)=C1/C(=O)CNC1=O)=C\[C@@H](C)[C@H]1O[C@@]2(C)O[C@H](C(=O)[C@@H]3O[C@@]32C)[C@@H]1C
inactive: [1] 20.4 µM | [3] 21.2 µM | [4] 31.8 µM | [5] 29.8 µM | [7] 7.24 µM | [9] 15.1 µM | [10] 35.8 µM | [11] 19.8 µM | [12] 16.7 µM | [13] 15.3 µM | [20] 14.3 µM | [14] 34.8 µM | [15] 22.9 µM | [16] 21.9 µM | [17] 16.7 µM | [18] 28.2 µM | [19] 23.5 µM

COC(=O)c1nc(Cl)nc(Cl)c1Cl
inactive: [1] 22.8 µM | [2] 19.4 µM | [3] 27 µM | [4] 20.7 µM | [5] 16.2 µM | [6] 19.3 µM | [7] 6.49 µM | [8] 44.1 µM | [9] 24.3 µM | [10] 29.5 µM | [11] 12.2 µM | [12] 17.3 µM | [14] 87.7 µM | [15] 83.8 µM | [16] 22.5 µM | [17] > 10 µM | [18] 15.8 µM | [19] 44.7 µM

O=C(c1ccccc1)N1C(=S)NC(=N/c2ccccc2)/C1=N\c1ccccc1
inactive: [1] > 100 µM | [3] > 100 µM | [5] > 100 µM | [6] > 100 µM | [7] > 100 µM | [8] > 100 µM | [9] > 100 µM | [10] > 100 µM | [11] > 100 µM | [12] > 100 µM | [13] > 100 µM | [20] > 100 µM | [14] > 100 µM | [15] > 100 µM | [16] > 100 µM | [17] > 100 µM | [18] > 100 µM | [19] > 100 µM

O=S(=O)(O)c1cc(S(=O)(=O)O)c2c(Nc3ccnc4ccccc34)ccc(S(=O)(=O)O)c2c1
inactive: [1] > 100 µM | [3] > 100 µM | [4] > 100 µM | [5] > 100 µM | [6] > 100 µM | [7] > 100 µM | [8] > 100 µM | [9] > 100 µM | [10] > 100 µM | [12] > 100 µM | [13] > 100 µM | [20] > 100 µM | [14] > 100 µM | [15] > 100 µM | [16] > 100 µM | [17] > 100 µM | [18] > 100 µM | [19] > 100 µM

OCC1OC(c2n[nH]c3c(O)ncnc23)C(O)C1O (stereo not drawn)
inactive: [1] 18.4 µM | [3] 44.9 µM | [4] 5.48 µM | [5] 4.17 µM | [6] 10.2 µM | [7] 7.38 µM | [9] 4.72 µM | [10] 31.7 µM | [11] 7.48 µM | [12] 9.4 µM | [13] > 100 µM | [20] 30.1 µM | [14] > 100 µM | [15] 31 µM | [16] 11.9 µM | [17] 31.6 µM | [18] 34.4 µM | [19] 32.4 µM
